Experimental data: patent US20260356851A1, “TRICYCLIC COMPOUNDS AND USES THEREOF” (HUTCHMED LIMITED, priority 2023, published 2026)

Key:
Format in all cases: cell-based
[1] = target: T1, pERK1/2 (Thr202/Tyr204), NCI-1H441 (KRAS G12V) (Homo sapiens, UniProt P01116, G12V); assay: Assay of intracellular pERK1/2 (Thr202/Tyr204) phosphorylation in NCI-H441 cells (KRAS G12V); conditions: pERK1/2, 2 days, read-out: NCI-H441 (KRAS G12V) IC50
T1 construct: pERK1/2 HTRF read-out
Method in brief: (§1)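 HTRF detection of Thr202/Tyr204-phosphorylated ERK1/2 (665/615 nm ratio) in lysates from cells treated 2 days with serially 3-fold diluted compound.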

[2] = target: T2, pERK1/2 (Thr202/Tyr204), NCI-1H358 (KRAS G12C) (Homo sapiens, UniProt P01116, G12C); assay: Assay of intracellular pERK1/2 (Thr202/Tyr204) phosphorylation in NCI-H358 cells (KRAS G12C); conditions: pERK1/2, 2 days, read-out: NCI-H358 (KRAS G12C) IC50
T2 construct: pERK1/2 HTRF read-out
T2 sequence (P01116 1-188 isoform P01116-2 G12C): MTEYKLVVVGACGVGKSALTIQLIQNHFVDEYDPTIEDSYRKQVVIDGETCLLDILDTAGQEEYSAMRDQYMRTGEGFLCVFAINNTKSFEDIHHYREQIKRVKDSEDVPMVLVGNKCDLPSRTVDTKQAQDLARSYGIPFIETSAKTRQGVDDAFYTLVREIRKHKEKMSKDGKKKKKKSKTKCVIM
Method in brief: as §1

[3] = target: T3, pERK1/2 (Thr202/Tyr204), PANC-1 (KRAS G121D) (Homo sapiens, UniProt P01116, G12D); assay: Assay of intracellular pERK1/2 (Thr202/Tyr204) phosphorylation in PANC-1 cells (KRAS G12D); conditions: pERK1/2, 2 days, read-out: PANC-1 (KRAS G12D) IC50
T3 construct: pERK1/2 HTRF read-out
T3 sequence (P01116 1-188 isoform P01116-2 G12D): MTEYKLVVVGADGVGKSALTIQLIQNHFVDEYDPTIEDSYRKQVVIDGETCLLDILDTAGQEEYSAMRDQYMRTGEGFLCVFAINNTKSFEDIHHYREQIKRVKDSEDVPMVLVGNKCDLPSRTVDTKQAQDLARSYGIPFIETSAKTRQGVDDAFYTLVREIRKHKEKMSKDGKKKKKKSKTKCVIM
Method in brief: as §1

T1 sequence (P01116 1-188 isoform P01116-2 G12V): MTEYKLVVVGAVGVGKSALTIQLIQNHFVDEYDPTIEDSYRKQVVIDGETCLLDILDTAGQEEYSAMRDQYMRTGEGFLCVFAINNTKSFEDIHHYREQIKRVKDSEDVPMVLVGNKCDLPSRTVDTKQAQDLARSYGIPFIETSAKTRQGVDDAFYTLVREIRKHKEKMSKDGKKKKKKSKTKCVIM

- IC50 [1]: > 100 nM
- IC50 [2]: 60 nM
- IC50 [3]: > 100 nM
SMILES: Cc1cc2[nH]ncc2c(-c2nc3c4c(nc(OC[C@@]56CCCN5C[C@H](F)C6)nc4c2F)N(C(C)c2cccnc2N)[C@H]2CCC[C@H]2O3)c1C(F)(F)F (stereo partly drawn) [Compound 389]
